Entries after “also recorded” stand apart in the source; their conditions may differ. Where two headings read alike, the source gives them in different places.
Experiments:
[1] = system: c-fos SRE activation in CHO cells stably expressing D2R; test: SRE-luciferase reporter assay, quinpirole-stimulated c-fos SRE activation in CHO-D2R cells; format: cell-based, Chinese hamster
[2] = system: Erk1/2 phosphorylation; test: Western blot of phospho-Erk1/2 in CHO-D2R cells; format: cell-based, Chinese hamster; conditions: 25 nM PD098059, 30 minutes before 100 nM quinpirole, 5 min
Description: Cell lysates were prepared by incubating cells for 5 minutes on ice with a lysis buffer containing […] NaCl, 50 mM Tris, pH 7.5, 5 mM EDTA, 1% Triton, and a mixture of protease inhibitors. Cells were then scraped off plates and sonicated. The detergent-insoluble material was removed by microcentrifugation for 10 minutes at 4° C. An equal amount of protein was run on SDS gels (Novex, Carlsbad, Calif.) and transferred to nitrocellulose (Bio-Rad, Hercules, Calif.). […] The membrane was washed, incubated for 1 hour in TBS containing appropriate HRP-conjugated secondary antibodies, washed again, and developed with the ECL reagent (Amersham Pharmacia Biotech, Piscataway, N.J.).

[3] = transfection of dominant-negative Rho family mutant or C3 (3 μg), 100 nM quinpirole

COC[C@H]1OC(=O)c2coc3c2[C@@]1(C)C1=C(C3=O)[C@@H]2CCC(=O)[C@@]2(C)C[C@H]1OC(C)=O [wortmannin, reference compound]
effect on quinpirole-stimulated SRE activation ([1]; 50 nM wortmannin, 100 nM quinpirole): no effect

pertussis toxin [reference compound]
effect on quinpirole-stimulated SRE activation [1]: completely abolished; also recorded: abrogated

CdcN17: dominant-negative mutant of Cdc42, Thr17 substituted with Asn
effect on quinpirole-stimulated SRE activation [1, 3]: suppressed

COc1cccc(-c2cc(=O)c3ccccc3o2)c1N [PD098059, reference compound]
effect on quinpirole-stimulated Erk1/2 phosphorylation [2]: completely suppressed; also recorded: inhibited | effect on quinpirole-stimulated SRE activation ([1]; 25 nM PD098059, 100 nM quinpirole): only partially suppressed; also recorded: inhibited | diminution of quinpirole-stimulated SRE activity ([1]; 25 nM PD098059, 100 nM quinpirole, compared to vehicle): about 50%

RhoN19: dominant-negative mutant of RhoA, Thr19 substituted with Asn
effect on quinpirole-stimulated SRE activation [1, 3]: suppressed

From US20030119716A1, “Methods for screening, treating and diagnosing G-protein coupled receptor-related disorders and compositions thereof” (Wyeth, priority 2001, published 2003)
